Assay results: the NIST ThermoML archive (doi:10.1016/j.tca.2008.10.009)

Conditions: Crystal, Rate of evaporation

vapor or sublimation pressure (420.7 K): 0.0009 kPa | vapor or sublimation pressure (440.3 K): 0.0029 kPa | vapor or sublimation pressure (469.9 K): 0.0425 kPa | vapor or sublimation pressure (499.2 K): 0.5263 kPa | vapor or sublimation pressure (517.5 K): 2.162 kPa
SMILES: CC(C)C[C@H](N)C(=O)O [L-leucine]
